For one test, the target named is b-Raf (V600E) (Homo sapiens (Human), UniProt P15056, V600E). The following applies: read-out: b-Raf IC-50; AlphaScreen, 60 min pre-incubation, 3 hours reaction.
Chain of b-Raf (V600E) (P15056 whole entry V600E): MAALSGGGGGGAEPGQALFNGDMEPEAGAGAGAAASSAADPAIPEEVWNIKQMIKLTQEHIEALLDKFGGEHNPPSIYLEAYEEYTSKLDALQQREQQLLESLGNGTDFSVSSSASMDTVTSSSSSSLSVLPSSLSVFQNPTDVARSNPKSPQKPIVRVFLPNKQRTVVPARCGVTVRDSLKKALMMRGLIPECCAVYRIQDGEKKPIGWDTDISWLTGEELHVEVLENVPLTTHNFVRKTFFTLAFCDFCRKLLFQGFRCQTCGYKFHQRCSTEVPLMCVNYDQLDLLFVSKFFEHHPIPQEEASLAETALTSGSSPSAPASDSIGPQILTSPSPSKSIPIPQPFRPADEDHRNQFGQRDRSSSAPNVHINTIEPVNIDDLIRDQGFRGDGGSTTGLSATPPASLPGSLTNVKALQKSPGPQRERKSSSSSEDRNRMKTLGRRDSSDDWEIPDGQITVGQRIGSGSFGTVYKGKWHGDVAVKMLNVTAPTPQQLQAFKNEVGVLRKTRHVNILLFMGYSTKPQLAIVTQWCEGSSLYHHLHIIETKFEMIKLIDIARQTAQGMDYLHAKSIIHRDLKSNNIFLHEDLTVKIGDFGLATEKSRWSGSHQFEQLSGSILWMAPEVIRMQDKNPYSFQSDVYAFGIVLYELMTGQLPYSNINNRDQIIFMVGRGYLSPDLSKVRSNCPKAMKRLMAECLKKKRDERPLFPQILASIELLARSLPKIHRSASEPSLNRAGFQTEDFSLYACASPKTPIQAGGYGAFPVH
As for `CCNc1nc(-c2cc(NC(=O)c3cccc(C(C)(C)C#N)c3)cnc2C)cc(N2CCOCC2)n1` [Example 726, 3-(2-cyanopropan-2-yl)-N-(5-(2-(ethylamino)-6-morpholinopyrimidin-4-yl)-6-methylpyridin-3-yl)benzamide], the IC50 worked out at 9 nM. `Cc1ccc(NC(=O)c2ccnc(C(C)(C)O)c2)cc1-c1cc(N2CCOCC2)c(=O)n(C)n1` [Example 638, 2-(2-hydroxypropan-2-yl)-N-(4-methyl-3-(1-methyl-5-morpholino-6-oxo-1,6-dihydropyridazin-3-yl)phenyl)isonicotinamide]: the IC50 turned out to be 9.6 nM.

On to `Cc1ccc(NC(=O)c2ccnc(N3CCC3)c2)cc1-c1cc(N2CCOCC2)c(=O)n(C)c1` [Example 454, 2-(azetidin-1-yl)-N-(4-methyl-3-(1-methyl-5-morpholino-6-oxo-1,6-dihydropyridin-3-yl)phenyl)isonicotinamide], for which the IC50 is 1.9 nM.

On to `Cc1ccc(NC(=O)c2ccnc(C(C)(C)F)c2)cc1-c1cc(N2CCOC[C@@H]2C)c(=O)n(C)n1` [Example 662, (S)-2-(2-fluoropropan-2-yl)-N-(4-methyl-3-(1-methyl-5-(3-methylmorpholino)-6-oxo-1,6-dihydropyridazin-3-yl)phenyl)isonicotinamide], for which the IC50 worked out at 3.9 nM. On the same count and under the same terms, in the case of `CCNc1nc(-c2cc(NC(=O)c3ccccc3)ccc2C)cc(N2CCOCC2)n1` [Example 695, N-(3-(2-(ethylamino)-6-morpholinopyrimidin-4-yl)-4-methylphenyl)benzamide] it was 4 nM; in that of `CCNc1nc(-c2cc(C(=O)Nc3ccccc3)ccc2C)cc(N2CCOCC2)n1` [Example 731, 3-(2-(ethylamino)-6-morpholinopyrimidin-4-yl)-4-methyl-N-phenylbenzamide], 4.4 nM. Still for that read-out and setting: in the case of `CCNc1nc(-c2cc(NC(=O)c3ccnc(C4COC4)c3)cnc2C)cc(N2CCOCC2)n1` [Example 729, N-(5-(2-(ethylamino)-6-morpholinopyrimidin-4-yl)-6-methylpyridin-3-yl)-2-(oxetan-3-yl)isonicotinamide] it was 17.7 nM; in that of `Cc1ncc(NC(=O)c2ccnc(C(C)(F)F)c2)cc1-c1cc(N2CCOCC2)n(C)c(=O)c1` [Example 510, 2-(1,1-difluoroethyl)-N-(1′,2-dimethyl-6′-morpholino-2′-oxo-1′,2′-dihydro-[3,4′-bipyridin]-5-yl)isonicotinamide], 7.5 nM.

Still in this test, the particulars now being: read-out: b-Raf IC-50; AlphaScreen, 60 min pre-incubation, reaction 3 hours at room temperature.
Consider `Cc1ncc(NC(=O)c2ccnc(C(F)(F)F)c2)cc1-c1cc(N2CCOCC2)nc(N2CC(O)C2)c1` [Example 1088, N-(2′-(3-hydroxyazetidin-1-yl)-2-methyl-6′-morpholino-[3,4′-bipyridin]-5-yl)-2-(trifluoromethyl)isonicotinamide], for which the IC50 came out at 4.06 nM. As to `Cc1ccc(NC(=O)c2cnnc(C(F)(F)F)c2)cc1-c1cc(N2CCOCC2)c2nccn2c1` [Example 852], the IC50 came to 0.7 nM. The same measure, in the same setting: in the case of `Cc1ccc(NC(=O)c2ccnc(C3(C#N)CC3)c2)cc1-c1cc(NCCO)nc(N2CCOCC2)c1` [Example 1050, 2-(1-cyanocyclopropyl)-N-(3-(2-((2-hydroxyethyl)amino)-6-morpholinopyridin-4-yl)-4-methylphenyl)isonicotinamide] it was 1.31 nM; in that of `Cc1ncc(NC(=O)c2ccnc(C(C)(C)C#N)c2)cc1-c1cnc(OC(C)C)c(N2CCOCC2)c1` [Example 954, 2-(2-cyanopropan-2-yl)-N-(6′-isopropoxy-2-methyl-5′-morpholino-[3,3′-bipyridin]-5-yl)isonicotinamide], 7.3 nM; in that of `Cc1ncc(NC(=O)c2ccnc(C(F)(F)F)c2)cc1-c1cc(N2CCOCC2)c(S(C)(=O)=O)nn1` [Example 921, N-(6-methyl-5-(6-(methylsulfonyl)-5-morpholinopyridazin-3-yl)pyridin-3-yl)-2-(trifluoromethyl)isonicotinamide], 7.73 nM. As for `Cc1ncc(NC(=O)c2ccnc(C(C)(F)F)c2)cc1-c1cc(N2CCOCC2)c(OCC(F)F)nn1` [Example 915, N-(5-(6-(2,2-difluoroethoxy)-5-morpholinopyridazin-3-yl)-6-methylpyridin-3-yl)-2-(1,1-difluoroethyl)isonicotinamide], the IC50 was determined as 1.11 nM. In the case of `Cc1ccc(NC(=O)c2cnnc(C(F)(F)F)c2)cc1-c1cc(NCCO)nc(N2CCOCC2)c1F` [Example 1013, N-(3-(3-fluoro-6-((2-hydroxyethyl)amino)-2-morpholinopyridin-4-yl)-4-methylphenyl)-6-(trifluoromethyl)pyridazine-4-carboxamide], the IC50 turned out to be 9.79 nM. For `Cc1ncc(NC(=O)c2ccnc(C(C)C)c2)cc1-c1cc(N2CCOCC2)nc(N2CCOCC2)c1` [Example 1119, 2-isopropyl-N-(2-methyl-2′,6′-dimorpholino-[3,4′-bipyridin]-5-yl)isonicotinamide], the IC50 was 2 nM.

Regarding `Cc1ccc(NC(=O)c2ccnc(C(C)(F)F)c2)cc1-c1cc(C2COCCO2)nc(N2CCOCC2)c1` (stereo not shown) [Example 1145], the IC50 came out at 1.3 nM. Still for that read-out and setting: with `Cc1ncc(NC(=O)c2cccc(C(F)(F)F)c2)cc1-c1cc(N2CCOCC2)nc(N2CCC(O)C2)c1` (stereo not shown) [Example 1131, N-(2′-(3-hydroxypyrrolidin-1-yl)-2-methyl-6′-morpholino-[3,4′-bipyridin]-5-yl)-3-(trifluoromethyl)benzamide] the figure was 2.34 nM; with `Cc1ncc(NC(=O)c2cc(C(F)(F)F)ccn2)cc1-c1cc(N2CCOCC2)c(S(C)(=O)=O)nn1` [Example 923, N-(6-methyl-5-(6-(methylsulfonyl)-5-morpholinopyridazin-3-yl)pyridin-3-yl)-4-(trifluoromethyl)picolinamide], 5.46 nM.

Staying with this test, now noted: read-out: b-Raf IC-50; Table 2; AlphaScreen, 3 hours reaction.
`CCOc1ncc(-c2cc(NC(=O)c3ccnc(C(F)F)c3)cnc2C)cc1N1CCOCC1` [Example 247, 2-(difluoromethyl)-N-(6′-ethoxy-2-methyl-5′-morpholino-[3,3′-bipyridin]-5-yl)isonicotinamide]: the IC50 is 1.1 nM.

For `CCOc1ncc(-c2cc(NC(=O)c3cnnc(C(C)(C)C#N)c3)ccc2C)cc1N1CCOCC1` [Example 284, 6-(2-cyanopropan-2-yl)-N-(3-(6-ethoxy-5-morpholinopyridin-3-yl)-4-methylphenyl)pyridazine-4-carboxamide], the IC50 is 1.1 nM. On the same count and under the same terms, with `CCOc1ncc(-c2cc(NC(=O)c3cccc(C(F)(F)F)c3)ccc2C)cc1N1CCOCC1` [Example 235] the figure was 1 nM.

Turning to `Cc1cn(-c2cc(NC(=O)c3ccc(C)c(-c4cc(N5CCOCC5)c(=O)n(C)c4)c3)cc(C(F)(F)F)c2)cn1` [Example 428, 4-methyl-N-(3-(4-methyl-1H-imidazol-1-yl)-5-(trifluoromethyl)phenyl)-3-(1-methyl-5-morpholino-6-oxo-1,6-dihydropyridin-3-yl)benzamide], the IC50 was found to be 10.1 nM. On the same count and under the same terms, with `Cn1cc(-c2cc(NC(=O)c3cccc(C(F)(F)F)c3)ccc2F)cc(N2CCOCC2)c1=O` [Example 410] the figure was 2 nM; with `Cc1ncc(NC(=O)c2ccnc(C(C)(C)F)c2)cc1-c1cnc(OC2CCOCC2)c(N2C3CCC2COC3)c1` [Example 279, N-(5′-(3-oxa-8-azabicyclo[3.2.1]octan-8-yl)-2-methyl-6′-((tetrahydro-2H-pyran-4-yl)oxy)-[3,3′-bipyridin]-5-yl)-2-(2-fluoropropan-2-yl)isonicotinamide], 3200 nM.

Regarding `Cc1ccc(NC(=O)c2cccc(C(C)(C)S(C)(=O)=O)c2)cc1-c1cc(N2CCOCC2)c(=O)n(C)c1` [Example 351, N-(4-methyl-3-(1-methyl-5-morpholino-6-oxo-1,6-dihydropyridin-3-yl)-phenyl)-3-(2-(methylsulfonyl)propan-2-yl)benzamide], the IC50 amounted to 19.5 nM. In the case of `Cc1ccc(NC(=O)c2cn(C(C)C)nc2C)cc1-c1cc(N2CCOCC2)c(=O)n(C)c1` [Example 367, 1-isopropyl-3-methyl-N-(4-methyl-3-(1-methyl-5-morpholino-6-oxo-1,6-dihydropyridin-3-yl)phenyl)-1H-pyrazole-4-carboxamide], the IC50 came to 12.6 nM. For `CCOc1ncc(-c2cc(NC(=O)c3cccc(-c4nnco4)c3)ccc2C)cc1N1CCOCC1` [Example 230, N-(3-(6-ethoxy-5-morpholinopyridin-3-yl)-4-methylphenyl)-3-(1,3,4-oxadiazol-2-yl)benzamide], the IC50 amounted to 1.4 nM.

Turning to `Cc1ncc(NC(=O)c2cccc(C(C)(F)F)c2)cc1-c1cc(N2CCOCC2)c(=O)n(C)c1` [Example 393, 3-(1,1-difluoroethyl)-N-(1′,2-dimethyl-5′-morpholino-6′-oxo-1′,6′-dihydro-[3,3′-bipyridin]-5-yl)benzamide], the IC50 worked out at 4.6 nM. With `Cc1ncc(NC(=O)c2ccnc(C(C)(C)C#N)c2)cc1-c1cnc(Cl)c(N2CCOCC2)c1` [Example 289, N-(6′-chloro-2-methyl-5′-morpholino-[3,3-bipyridin]-5-yl)-2-(2-cyanopropan-2-yl)isonicotinamide], the IC50 was found to be 15.6 nM. The same measure, in the same setting: in the case of `CCOc1ncc(-c2cc(NC(=O)c3cnnc(C(C)(C)F)c3)ccc2C)cc1N1CCOCC1` [Example 304, N-(3-(6-ethoxy-5-morpholinopyridin-3-yl)-4-methylphenyl)-6-(2-fluoropropan-2-yl)pyridazine-4-carboxamide] it was 0.9 nM; in that of `Cc1ncc(NC(=O)c2cnnc(C(F)(F)F)c2)cc1-c1cnc(N(C)C)c(N2CCOCC2)c1` [Example 270, N-(6′-(dimethylamino)-2-methyl-5′-morpholino-[3,3′-bipyridin]-5-yl)-6-(trifluoromethyl)pyridazine-4-carboxamide], 0.5 nM; in that of `Cc1ccc(NC(=O)c2cnccn2)cc1-c1ccnc(N2CCOCC2)c1` [Example 70, N-(4-methyl-3-(2-morpholinopyridin-4-yl)phenyl)pyrazine-2-carboxamide], 200 nM.

Turning to `Cc1ncc(NC(=O)c2cccc(C(F)(F)F)c2)cc1-c1cc(N2CCOCC2)c(=O)n(CCC#N)c1` [Example 333, N-(1′-(2-cyanoethyl)-2-methyl-5′-morpholino-6′-oxo-1′,6′-dihydro-[3,3′-bipyridin]-5-yl)-3-(trifluoromethyl)benzamide], the IC50 amounted to 11.4 nM.

(Values after patent US9694016B2 (Novartis AG, priority 2013, dated 2017).)
